Measurements: patent US20180235870A1, “TRANSDERMAL FORMULATIONS FOR DELIVERY OF BERBERINE COMPOUNDS, AND THEIR USE IN THE TREATMENT OF BERBERINE-RESPONSIVE DISEASES AND CONDITIONS” (DELIVRA INC., priority 2015, published 2018)
Entries after “also recorded” stand apart in the source; their conditions may differ.

Assays:
[1] = Solubility testing of berberine and dihydroberberine using various solvents; assay type: physicochemical
Description: Solubility was determined in a step-wise procedure that involved attempting to dissolve the berberine/DHB in the solvents at relatively high concentrations. […] Then the expected solvent was added to the berberine/DHB. The container was sonicated at RT or at 40C for 30 minutes. The following solvents were tested to dissolve the DHB. Dimethyl sulfoxide (Reagent Grade; […] Lot #STB[…]), and Glycerol tributyrate (Sigma T8626; Lot #BCBQ […]). […] The solubility was visually checked and state of solubility was recorded.

[2] = system: PCSK9 expression in HEPG2 cells; test: Berberine signaling in HEPG2: PCSK9 western blot of supernatant; assay type: cell-based, human; conditions: 24 hours; for expression of PCSK9 in supernatant (western blot): 25 to 3.125 ug/ml, versus negative control
Description: HEPG2 cells were cultured in 24 well plates to confluence in DMEM supplemented with 10% FBS. After reaching confluence, cells were incubated overnight with 0.1% FBS OPTIMEM for serum starvation. After serum starvation the cells were incubated with berberine, DHB, or THB in 0.1% FBS OPTIMEM using the following dose course: 25 ug/ml, 12.5 ug/ml 6.25 ug/ml 3.125 ug/ml for 24 hours. Supernatant was collected after stimulation and western blotted as follows:
(1) Resolved on 12.5% gel.
(3) Blocked with 3% BSA TBST (4) Rabbit anti PCSK9 (Cayman chemicals cat 10007185) at 1/600 in TTBS (5) Wash 3×5 min with TTBS (6) HRP-Goat anti-Rabbit 1/1000 (Cayman chemicals) (7) Wash 3×5 min with TTBS (8) Detection with ECL
Proprotein convertase subtilisin/kexin type 9 (PCSK9) post-transcriptionally downregulates the low-density lipoprotein receptor (LDLR) by binding to the receptor's epidermal growth factor repeat A on the cell surface and shuttling the LDLR to the lysosomes for degradation. […] Previous reports indicate that berberine has lipid lowering effects in both animal models and human trials (Arrigo F. G., Cicero, L., Rovati C. et al., 2007). The signalling effects of berberine, DHB, and THB were evaluated using the human liver cell line HEPG2. PCSK9, an enzyme that acts in cholesterol homeostasis, is expressed in HEPG2 cells and these cells have previously been used as a model of dyslipidemia. PCSK9 binds to LDL receptor causing uptake of LDL and the LDL receptor and targets both molecules for degradation upon internalization. In the absence of PCSK9, LDL and LDL receptor are still internalized, however, LDL receptor is not degraded but instead recycled to the cell surface resulting in more efficient uptake of circulating LDL.

[3] = Stability of synthetic derivatives DHB and THB in solution (UV/VIS); assay type: physicochemical; conditions: for stability over time (oxidation to berberine): several solvents
Description: UV/VIS spectrometry is a useful tool for monitoring the conversion of DHB to berberine in solution. Several anti-oxidants and encapsulating agents were combined with DHB in solution to increase stability.

[4] = system: male Zucker fa/fa rat, a model of type 2 diabetes and metabolic disorder; test: Efficacy of transdermal berberine alone and in combination with pharmaceuticals in a model of metabolic syndrome (Example 19); assay type: in vivo, obese male Zucker fa/fa rats; conditions: Zucker fa/fa rats
Description: Fourteen obese male Zucker fa/fa rats at 5 weeks of age were housed for five weeks to the age of 10 weeks. During these five weeks, body weight measurements were taken once a week and once daily health observations were conducted for all animals. […] On Day 28, serum and whole liver was collected. […] Food and water intake measurements were taken once a week during the study period of Day 0 to Day 28. […] A sufficient amount of test article was supplied and formulated. Test article product was administered at a dose of 3.6 g/kg twice a day (e.g. […] Berberine cream was weighed fresh daily at each AM and PM dosing to avoid desiccation of the test article. Daily PO and TD dosing of the test articles took place between the hours of 08:00 to 10:00 and 16:00 to 18:00 for 7 days a week between Day 0 to 27. […] The exact time of dosing (up to the minute) was recorded for each animal on the daily dosing sheets. […] Remaining dosing solutions were stored at 4° C. between dosing periods. […] The animals shaved underwemt gaseous anaesthetic according to SOP ROD28.01 to ensure accuracy and avoid undue stress of the animal. The area was further shaven as needed over the course of the dosing period to ensure accurate drug application and absorption. At dosing, the animals were restrained and the transdermal test articles were applied in a uniform layer over the entire shaved area. […] PTS3028).

[5] = system: male Zucker rat, a model of type-2 diabetes and metabolic disorder; test: Effect of berberine, metformin and simvastatin on body mass, lipid biomarkers, food and water intake, clinical chemistry (Example 18); assay type: in vivo, obese male Zucker fa/fa rats; conditions: Zucker rats, Days 0 to 28
Description: All in vivo animal husbandry, treatment regiments, and sample collections were completed by InterVivo. The study was completed using obese male Zucker fa/fa rats (Charles River) at 10 weeks of age. […] Shaving was performed under anaesthesia one day prior to initiation of test article administration. The area was further shaven, as needed, over the course of the dosing period to ensure accurate drug application and absorption. For dosing procedures, animals were restrained and the transdermal test articles applied in a uniform layer over the entire shaved area. The shaved administration area was cleaned daily with paper towel before the subsequent transdermal dose was administered. Animals receiving test articles via oral gavage were restrained, and a ball-tipped gavage needle (18G) attached to a syringe containing the dosing solution was first inserted into the mouth, and then into the stomach. To determine the appropriate depth of insertion of the needle, the position corresponding to the last rib was measured prior to insertion. […] Group A), oral administration of berberine (180 mg/kg/dose; […] Group C), and oral administration of the vehicle (Group D) (Table 19). […] Group F), or with orally-administered metformin (200 mg/kg/dose; Group G). […] On Day 28, the animals were dosed in the morning only, prior to euthanasia and tissue collection. Animal body weights were performed once weekly from Day −34 to −2 and daily from Day −1 to 28. Rats were weighed, and the scales were operated and maintained, according to standard operating procedures. Food and water consumption measurements were taken over a 24 hour period, once weekly, from Days 0 to 28. Blood was collected via tail nick on Day-1 to determine unfasted blood glucose level for group allocation. Whole blood was collected via the saphenous vein or other appropriate route on Days 0, 7, 14, 21 and 28 immediately prior to test article administration. […] On Day 28, subjects were anaesthetized with isoflurane, and whole blood was collected via cardiac puncture 2.5 hours (+/−5 minutes) following treatment administration on this day. […]

[6] = Plasma concentrations of berberine, berberine glucuronide, simvastatin and simvastatin hydroxy acid in rats (Example 20); assay type: in vivo; conditions: rats (n=2); oral simvastatin 6 mg/kg/dose
[7] = averaged over the entire experiment

For `COc1ccc2c(c1OC)CN1CCc3cc4c(cc3C1=C2)OCO4` [DHB, dihydroberberine], the “Dissolving Capability” value ([1]; Acetone, sonication 40 C.) was 25.0 mg/mL, the “Dissolving Capability” value ([1]; Acetone, sonication RT) was 12.5 mg/mL and the “Dissolving Capability” value ([1]; Dimethyl sulfoxide (DMSO), sonication 40 C.) was 50.0 mg/mL. The “Dissolving Capability” value ([1]; Dimethyl sulfoxide (DMSO), sonication RT) was 25.0 mg/mL, the “Dissolving Capability” value ([1]; Ethanol, sonication 40 C.) was 2.5 mg/mL and the “Dissolving Capability” value ([1]; Ethanol, sonication RT) was 1.0 mg/mL. The “Dissolving Capability” value ([1]; Glycerol tributyrate, sonication 40 C.) was 75 to 250 mg/mL, the “Dissolving Capability” value ([1]; Glycerol tributyrate, sonication RT) was 10 mg/mL and the “Dissolving Capability” value ([1]; Hexylene glycol, sonication 40 C.) was 1.0 mg/mL. The “Dissolving Capability” value ([1]; Hexylene glycol, sonication RT) was 0.5 mg/mL, the “Dissolving Capability” value ([1]; Isopropyl myristate, sonication 40 C.) was 75 to 250 mg/mL and the “Dissolving Capability” value ([1]; Isopropyl myristate, sonication RT) was 10 mg/mL. The “Dissolving Capability” value ([1]; Isosorbid-dimethyl ether 98%, sonication 40 C.) was 250 mg/mL, the “Dissolving Capability” value ([1]; Isosorbid-dimethyl ether 98%, sonication 40 C., listed as Dihydroberberine) was 250 mg/mL and the “Dissolving Capability” value ([1]; Isosorbid-dimethyl ether 98%, sonication RT) was 25.0 mg/mL. For the same compound, the “Dissolving Capability” value ([1]; Mineral oil, sonication 40 C.) was 4.0 mg/mL, the “Dissolving Capability” value ([1]; Mineral oil, sonication RT) was 2.0 mg/mL and the “Dissolving Capability” value ([1]; Oleyl alcohol, sonication 40 C., listed as Dihydroberberine) was 50 mg/mL. For the same compound, the “Dissolving Capability” value ([1]; Oleyl alcohol, sonication 40 C., listed as dihydroberberine) was 50.0 mg/mL, the “Dissolving Capability” value ([1]; Oleyl alcohol, sonication RT) was 12.5 mg/mL and the “Dissolving Capability” value ([1]; Propanediol, sonication 40 C.) was 2.5 mg/mL. The “Dissolving Capability” value ([1]; Propanediol, sonication RT) was 1.0 mg/mL, the “Dissolving Capability” value ([1]; Trivalin, sonication 40 C.) was 5.0 mg/mL and the “Dissolving Capability” value ([1]; Trivalin, sonication RT) was 2.5 mg/mL. For the same compound, the “Dissolving Capability” value ([1]; Water, sonication 40 C.) was 1.0 mg/mL, the “Dissolving Capability” value ([1]; Water, sonication RT) was 0.5 mg/mL and the “concentration down to which expression of PCSK9 was reduced” value [2] was 6.25 µg/mL. The “expression of PCSK9 in supernatant (western blot)” value [2] was “down-regulate the expression of PCSK9; also recorded: reduce the expression of PCSK9”, the “oxidation of DHB to berberine on addition of ascorbic acid or cyclodextrin” value ([3]; UV/VIS) was “significantly slowed” and the “stability over time (oxidation to berberine)” value [3] was “prone to oxidation to provide berberine after a short time”.
In the case of `CN(C)C(=N)N=C(N)N` [Metformin], the “rate of weight gain (grams/day)” value ([4]; BID, Day 0 to 28, n=2) is reported as 3.3 grams/day, the “overall triglyceride levels (mmol/L+/−SEM)” value ([4]; averaged for the entire experiment) is reported as 15.1 ± 0.4 mmol/L and the “overall HbA1c level change (mmol/mmol+/−SEM)” value [4, 7] is reported as 34.3+/−0.4 mmol/mmol. The “overall average food intake (grams+/−SEM)” value [4, 7] was 33.4+/−0.7 grams, the “overall cholesterol level change (mmol/L+/−SEM)” value [4, 7] was 5.0 ± 0.4 mmol/L and the “overall average glucose change (%+/−SEM)” value ([4]; non-fasting glucose, averaged over the entire experiment) was 5.9+/−5.9%. For the same compound, the “HbA1c (in words)” value [5] was “largest reduction in HbA1c”.
`CCC(C)(C)C(=O)O[C@H]1C[C@@H](C)C=C2C=C[C@H](C)[C@H](CC[C@@H]3C[C@@H](O)CC(=O)O3)[C@H]21` [Simvastatin] gave a systemic simvastatin concentration [6] of 1.83 ng/mL.
In the case of `COc1ccc2c(c1OC)CN1CCc3cc4c(cc3C1C2)OCO4` (stereo not shown) [THB, tetrahydroberberine], the “expression of PCSK9 in supernatant (western blot)” value [2] is reported as “did not affect expression of PCSK9; also recorded: did not appear to reduce expression of PCSK9” and the “stability over time (oxidation to berberine)” value [3] is reported as “excellent stability in several solvents”.
